# According to ChEMBL document CHEMBL1201862, “PubChem BioAssay data set” (2004):
#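 How tested: cells in 96-well plates exposed to compound for 48 hours at five concentrations. GI50 marks 50% less growth.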 The source made the active and inactive calls. Cut-off read from the data, not from the text of the source: active = GI50 up to about 1.1 µM and inactive = higher.
# Key:
# Assay in all cases: inhibition of tumour cell growth, NCI panel, 48 h
# [1] = test system: A498
# [2] = test system: CAKI-1
# [3] = test system: DLD-1
# [4] = test system: DMS-273
# [5] = test system: HCT-116
# [6] = test system: HL-60
# [7] = test system: IGROV-1
# [8] = test system: LOX IMVI
# [9] = test system: MOLT-4
# [10] = test system: OVCAR-5
# [11] = test system: RXF 393
# [12] = test system: SK-MEL-2
# [13] = test system: SK-OV-3
# [14] = test system: SNB-75
# [15] = test system: SW-620
# [16] = test system: TK-10
# [17] = test system: UACC-257
# [18] = test system: CCRF-CEM
# [19] = test system: BT-549
# [20] = test system: MCF7
SMILES,GI50 [1],GI50 [2],GI50 [3],GI50 [4],GI50 [5],GI50 [6],GI50 [7],GI50 [8],GI50 [9],GI50 [10],GI50 [11],GI50 [12],GI50 [13],GI50 [14],GI50 [15],GI50 [16],GI50 [17],GI50 [18],GI50 [19],GI50 [20]
BrC(Br)([P+](c1ccccc1)(c1ccccc1)c1ccccc1)[P+](c1ccccc1)(c1ccccc1)c1ccccc1,22.4 µM (inactive),7.98 µM (inactive),15.9 µM (inactive),14.6 µM (inactive),17.3 µM (inactive),7.94 µM (inactive),18.1 µM (inactive),13.2 µM (inactive),7.91 µM (inactive),21.6 µM (inactive),11.1 µM (inactive),16.5 µM (inactive),38.5 µM (inactive),19.4 µM (inactive),12.2 µM (inactive),14.1 µM (inactive),19.5 µM (inactive),,,
COC(=N)/C(=C1\OC(=N)C(c2ccc(Cl)cc2)=C1O)c1ccc(Cl)cc1,> 100 µM (inactive),> 100 µM (inactive),> 100 µM (inactive),> 100 µM (inactive),> 100 µM (inactive),81.7 µM (inactive),> 100 µM (inactive),> 100 µM (inactive),> 100 µM (inactive),> 100 µM (inactive),> 100 µM (inactive),> 100 µM (inactive),> 100 µM (inactive),> 100 µM (inactive),> 100 µM (inactive),> 100 µM (inactive),> 100 µM (inactive),70.5 µM (inactive),,
Cc1c(N)nc([C@H](CC(N)=O)NC[C@H](N)C(N)=O)nc1C(=O)N[C@H](C(=O)N[C@H](C)[C@@H](O)[C@H](C)C(=O)N[C@H](C(=O)NCCc1nc(-c2nc(C(=O)NCCC[S+](C)C)cs2)cs1)[C@@H](C)O)C(OC1OC(CO)C(O)C(O)C1OC1OC(CO)C(O)C(OC(N)=O)C1O)c1c[nH]cn1 (some centres undefined),3.24 µM (inactive),0.0379 µM (active),14.1 µM (inactive),0.12 µM (active),0.415 µM (active),5.73 µM (inactive),2.29 µM (inactive),0.161 µM (active),1.28 µM (inactive),2.35 µM (inactive),0.236 µM (active),13.7 µM (inactive),6.46 µM (inactive),0.426 µM (active),8.18 µM (inactive),10.8 µM (inactive),12 µM (inactive),6.75 µM (inactive),10.2 µM (inactive),2.45 µM (inactive)
O=C1NC(=O)/C(=N\c2cccc3c(=O)[nH][nH]c(=O)c23)C(c2nc3ccccc3s2)C1=O (centres undefined),> 100 µM (inactive),> 100 µM (inactive),> 100 µM (inactive),> 100 µM (inactive),> 100 µM (inactive),> 100 µM (inactive),> 100 µM (inactive),,71.1 µM (inactive),,> 100 µM (inactive),> 100 µM (inactive),> 100 µM (inactive),> 100 µM (inactive),> 100 µM (inactive),> 100 µM (inactive),> 100 µM (inactive),55.2 µM (inactive),,
COc1ccc2c(c1)[n+]([O-])c(-c1ccc(Cl)c(Cl)c1)c(N)[n+]2[O-],47.5 µM (inactive),37.9 µM (inactive),33.9 µM (inactive),23.8 µM (inactive),42.9 µM (inactive),23.7 µM (inactive),27 µM (inactive),,37.5 µM (inactive),36.8 µM (inactive),,19.9 µM (inactive),55.1 µM (inactive),44.7 µM (inactive),38.9 µM (inactive),,16.4 µM (inactive),,,
C=C(C)C1CC=C(C)CC1 (centres undefined),906 µM (inactive),935 µM (inactive),885 µM (inactive),993 µM (inactive),923 µM (inactive),817 µM (inactive),993 µM (inactive),897 µM (inactive),1140 µM (inactive),968 µM (inactive),982 µM (inactive),798 µM (inactive),1140 µM (inactive),865 µM (inactive),895 µM (inactive),1000 µM (inactive),927 µM (inactive),826 µM (inactive),,
CS(=O)(=O)NNS(=O)(=O)c1ccc(F)cc1,> 100 µM (inactive),> 100 µM (inactive),> 100 µM (inactive),> 100 µM (inactive),> 100 µM (inactive),> 100 µM (inactive),> 100 µM (inactive),> 100 µM (inactive),> 100 µM (inactive),,> 100 µM (inactive),> 100 µM (inactive),,> 100 µM (inactive),> 100 µM (inactive),> 100 µM (inactive),> 100 µM (inactive),> 100 µM (inactive),,
